# Tests used:
# [1] = tested on: methane production; details: among antimethanogenic compounds found in A. taxiformis; cited from earlier work
# [2] = target: T1, methyl-coenzyme M reductase (MCR) (Methanothermobacter marburgensis, UniProt P11558); details: prevents the final catalysis step of methanogenesis; cited from earlier work
# T1 sequence (P11558 1-550): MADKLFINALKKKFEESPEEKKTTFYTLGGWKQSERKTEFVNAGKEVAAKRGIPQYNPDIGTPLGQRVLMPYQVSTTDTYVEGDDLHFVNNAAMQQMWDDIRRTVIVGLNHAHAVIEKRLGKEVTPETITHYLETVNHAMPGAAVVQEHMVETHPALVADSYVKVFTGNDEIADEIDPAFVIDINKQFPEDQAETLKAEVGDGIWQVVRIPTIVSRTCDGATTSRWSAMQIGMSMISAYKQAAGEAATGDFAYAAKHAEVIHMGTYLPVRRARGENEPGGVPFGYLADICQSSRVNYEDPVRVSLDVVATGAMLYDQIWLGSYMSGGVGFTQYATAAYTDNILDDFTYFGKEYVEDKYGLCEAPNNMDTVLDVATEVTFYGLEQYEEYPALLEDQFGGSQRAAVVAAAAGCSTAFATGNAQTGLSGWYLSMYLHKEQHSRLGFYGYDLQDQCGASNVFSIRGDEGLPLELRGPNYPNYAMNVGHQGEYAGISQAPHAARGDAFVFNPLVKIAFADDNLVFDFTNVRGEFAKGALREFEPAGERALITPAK
# T1 sequence (P11560 1-443 partner): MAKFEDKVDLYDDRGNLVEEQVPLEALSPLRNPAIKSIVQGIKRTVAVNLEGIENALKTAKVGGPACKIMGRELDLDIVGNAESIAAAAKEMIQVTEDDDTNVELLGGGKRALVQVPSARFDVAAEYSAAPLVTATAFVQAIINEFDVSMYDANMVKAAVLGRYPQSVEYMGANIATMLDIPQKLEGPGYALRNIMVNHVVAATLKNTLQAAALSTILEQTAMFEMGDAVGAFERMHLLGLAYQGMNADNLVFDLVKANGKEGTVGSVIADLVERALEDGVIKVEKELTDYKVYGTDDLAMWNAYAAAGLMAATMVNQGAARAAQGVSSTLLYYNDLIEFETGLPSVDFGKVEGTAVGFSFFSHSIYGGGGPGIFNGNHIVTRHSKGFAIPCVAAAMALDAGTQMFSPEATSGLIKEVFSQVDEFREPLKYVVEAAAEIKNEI
# T1 sequence (P11562 1-249 partner): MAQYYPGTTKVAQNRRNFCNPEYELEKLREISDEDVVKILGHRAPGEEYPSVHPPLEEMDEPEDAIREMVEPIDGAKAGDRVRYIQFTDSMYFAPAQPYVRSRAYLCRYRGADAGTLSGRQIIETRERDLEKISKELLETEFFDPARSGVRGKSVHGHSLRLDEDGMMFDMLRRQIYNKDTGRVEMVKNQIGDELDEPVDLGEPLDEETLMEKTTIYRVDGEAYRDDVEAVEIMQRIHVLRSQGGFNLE
# [3] = tested on: Methanobrevibacter smithii; details: 100 ul chloroform, positive control
Structure (SMILES),activity at inhibiting methane production [1],mode of action on methyl-coenzyme M reductase (MCR) [2],inhibition of methane production [3]
BrC(Br)Br [bromoform],highest activity at inhibiting methane production,competitive inhibitor or analog,–
ClC(Cl)Cl [chloroform],–,–,dramatic inhibition in methane production
ClC(Br)Br [dibromochloromethane],highest activity at inhibiting methane production,–,–

# — patent publication US12256759B2, “Methods for the reduction of methane production in ruminants” (Loam Bio Pty Ltd, priority 2021, dated 2025)
